Patent US8232278B2 (Gilead Sciences, Inc., priority 2005, dated 2012)
pEC50: −log10 of the molar value. Like-named read-outs stand apart in the source and are kept apart here.

What was measured:
[1] = tested on: HCV replicon; test: Anti-HCV assay / replicon assay (EC50, luciferase read-out); format: cell-based, hepatitis C virus (HCV); settings: for CC50/EC50: CC50/EC50 ratio (selectivity index); for pEC50: Hepatitis C virus
Procedure: (§1) The anti-HCV activity of the pyrido[3,2-d]pyrimidine derivatives of this invention was tested in a human hepatoma Huh-7 cell line harbouring a HCV replicon. The assay comprised the following steps:
(§2) Step 1: Compound Preparation and Serial Dilution
(§3) • 1. for water soluble pyrido[3,2-d]pyrimidine derivatives, a volume of 500 μL of solution in cell media (DMEM, 10% FBS, P/S, L-Glutamine) was prepared with a concentration being twice the concentration of the starting final serial dilution concentration. […] The rest of the plate, columns 2-12, was filled with 100 μL of cell media. The plate was then placed on a Precision 2000 Workstation to start the serial dilution. Compounds were diluted three times each step from column 1 to column 10. Column 11 was used as a blank control (no compound added). • 2. for pyrido[3,2-d]pyrimidine derivatives requiring DMSO to dissolve, serial dilution is performed in 50% DMSO in a 384-well plate. A solution containing a compound at 100-fold concentration of the starting final serial dilution concentration was prepared in 50% DMSO and added to the pre-specified wells in column 1 of a polypropylene 384-well plate. The plate was then placed on a Precision 2000 Workstation to start the serial dilution. After the serial dilution, a volume of 2 μL of the solution was transferred from the 384-well plate to a 96-well cell culture plate containing 100 μL of cell media on a Biomek FX Workstation. The DMSO concentration in the final assay condition was 0.5% after cells are added to the plate and the total volume in each well is brought to 200 μL. Step 2: to each well of the serial dilution plate prepared above, 100 μL of cell media containing 6000 suspended Huh-7 HCV replicon cells was added with a Multidrop workstation. The plates were incubated for 3 days at 37° C. with 5% CO2. Step 3: Detection: • a) for the EC50 assay, the media in a 96-well cell culture plate was aspirated with a Biotek EL405 plate-washer. A volume of 200 μL of a solution containing a 1:1 mixture of cell-lysis buffer (Promega, Luciferase Cell Culture Lysis 5× Reagent, cat. #E1531) and luciferase substrate solution (Promega, Luciferase Assay, cat. #E4550) was added to each well of the plate with Multidrop.
(§4) Results in table 7 are expressed by the following data: • the 50% effective concentration (EC50), i.e. the concentration that protects 50% of the cell monolayer from virus-induced cythopathic effect, and • the 50% cytostatic concentration (CC50), i.e. the concentration that results in 50% inhibition of cell growth. Table 7 further indicates the nature of substituents being present in positions 2, 4 and 6 of the pyrido[3,2-d]pyrimidine derivatives of the invention.

[2] = CC50 assay in Huh-7 HCV replicon cells (CellTiter-Glo); format: cell-based, human; settings: human, 50% cytostatic concentration
Procedure: as §1, §2, §3, §4

[3] = 72 h, human hepatoma Huh-7 cell line harbouring a HCV replicon, 3 days, luciferase luminescence, read-out: EC50

Row | Structure (SMILES) | CC50/EC50 [1] | pEC50 [1, 3] | CC50 at 3 days [2] [nM] | pEC50 ([1]; Huh-7, 72 h)
1 | CC(=O)N1CCN(c2nc(N)nc3ccc(-c4ccc5c(c4)OCO5)nc23)CC1 [Example 184, 2-amino-4-[N-acetyl-piperazin-1-yl]-6-(3,4-methylenedioxyphenyl)-pyrido[3,2-d]pyrimidine] | 128 | 6.77 | 21800 | –
2 | CC(=O)Nc1ccc(-c2ccc3nc(N)nc(OC(C)C)c3n2)cc1 [Example 355, 2-amino-4-(isopropoxy)-6-(p-acetamidophenyl)-pyrido(3,2-d)pyrimidine] | 120 | 6.68 | 25100 | –
3 | Nc1nc(N2CCN(C(=O)COc3ccc(F)cc3)CC2)c2nc(-c3ccc(F)cc3)ccc2n1 [Example 373, 2-amino-4-[4-(4-fluorophenoxy-acetyl)piperazin-1-yl]-6-(4-fluorophenyl)-pyrido[3,2-d]pyrimidine] | 148 | 6.89 | 19200 | –
4 | Nc1nc(N2CCN(C(=O)COc3ccc(Cl)cc3)CC2)c2nc(-c3ccc4c(c3)OCO4)ccc2n1 [Example 187, 2-amino-4-[N-(4-chlorophenoxy-acetyl)-piperazin-1-yl]-6-(3,4-methylenedioxyphenyl)-pyrido[3,2-d]pyrimidine] | 64 | 7.72 | 1200 | –
5 | CCC(C)Oc1nc(N)nc2ccc(-c3ccc(F)cc3)nc12 (stereo not drawn) [Example 296, 2-amino-4-sec. butoxy-6-(p-fluorophenyl)-pyrido[3,2-d]pyrimidine] | 67 | 6.25 | 37500 | –
6 | CCCCCOc1nc(N)nc2ccc(-c3cccc(F)c3)nc12 [Example 298, 2-amino-4-n-pentyloxy-6-(m-fluorophenyl)-pyrido[3,2-d]pyrimidine] | 77 | 6.44 | 28000 | –
7 | Nc1nc(N2CCN(C(=O)COc3ccc(Cl)cc3Cl)CC2)c2nc(-c3ccc(F)cc3)ccc2n1 [Example 372, 2-amino-4-[4-(2,4-dichlorophenoxy-acetyl)piperazin-1-yl]-6-(4-fluorophenyl)-pyrido[3,2-d]pyrimidine] | 78 | 6.49 | 25100 | –
8 | COc1ccc(-c2ccc3nc(N)nc(N4CCCC(C(=O)NCC(C)C)C4)c3n2)cc1OC (stereo not drawn) [Example 258, 2-amino-4-[(3-carboxylic acid isobutylamide)-piperidin-1-yl]-6-(3,4-dimethoxyphenyl)-pyrido[3,2-d]pyrimidine] | 56 | 7.13 | 4200 | –
9 | COCCSc1nc(N)nc2ccc(-c3ccc(F)cc3)nc12 [Example 395] | 278 | – | 13600 | 7.31
10 | Nc1ccc(-c2ccc3nc(N)nc(N4CCOCC4)c3n2)cc1 [Example 502, 6-(4-amino-phenyl)-4-morpholin-4-yl-pyrido[3,2-d]pyrimidin-2-ylamine] | 82 | – | 8100 | 7.00
11 | CCOc1nc(N)nc2ccc(-c3ccccc3F)nc12 [Example 279, 2-amino-4-ethoxy-6-(o-fluorophenyl)-pyrido[3,2-d]pyrimidine] | 54 | 6.16 | 37500 | –
12 | CC(C)C(=O)Nc1ccc(-c2ccc3nc(N)nc(N4CCOCC4)c3n2)cc1 [Example 501, N-[4-(2-amino-4-morpholin-4-yl-pyrido[3,2-d]pyrimidin-6-yl)-phenyl]-isobutyramide] | 149 | 7.31 | 7300 | –
13 | COc1ccc(-c2ccc3nc(N)nc(NC4CCN(C(=O)OC(C)(C)C)CC4)c3n2)cc1OC [Example 246, 2-amino-4-[(1-Boc-piperidin-4-yl)amino]-6-(3,4-dimethoxyphenyl)-pyrido[3,2-d]pyrimidine] | 70 | 7.66 | 1500 | –
14 | CC(=O)Nc1ccc(-c2ccc3nc(N)nc(N4CCOCC4)c3n2)cc1 [Example 500, N-[4-(2-amino-4-morpholin-4-yl-pyrido[3,2-d]pyrimidin-6-yl)-phenyl]-acetamide] | 735 | 7.31 | 36000 | –
15 | Nc1nc(OCC2CC2)c2nc(-c3ccc(F)cc3)ccc2n1 [Example 326, 2-amino-4-(cyclopropylmethyloxy)-6-(4-fluorophenyl)pyrido[3,2-d]pyrimidine] | 254 | 7.00 | 25100 | –
16 | Cc1cccc(OCC(=O)N2CCN(c3nc(N)nc4ccc(-c5ccc(F)cc5)nc34)CC2)c1 [Example 370, 2-amino-4-[4-(3-methylphenoxy-acetyl)piperazin-1-yl]-6-(4-fluorophenyl)-pyrido[3,2-d]pyrimidine] | 65 | 7.28 | 3400 | –
17 | CCOc1nc(N)nc2ccc(-c3ccc(OC)nc3)nc12 [Example 546] | 68 | 6.43 | 25100 | –
18 | CC(=O)Nc1nc(OC(C)C)c2nc(-c3ccc(F)cc3)ccc2n1 [Example 285, 2-acetamido-4-isopropoxy-6-(p-fluorophenyl)-pyrido[3,2-d]pyrimidine] | 492 | 7.29 | 25100 | –
19 | CC(C)COc1nc(N)nc2ccc(-c3ccc(F)cc3)nc12 [Example 293, 2-amino-4-isobutoxy-6-(p-fluorophenyl)-pyrido[3,2-d]pyrimidine] | 68 | 6.43 | 25100 | –
20 | CCOc1cccc(-c2ccc3nc(N)nc(OCC)c3n2)c1 [Example 549] | 53 | 6.33 | 25100 | –
21 | COCCNc1nc(NC(C)=O)nc2ccc(-c3ccc(F)cc3)nc12 [Example 398, 2-acetamido-4-(2-methoxy-ethylamino)-6-(4-fluorophenyl)pyrido[3,2-d]pyrimidine] | 61 | 6.39 | 25100 | –
22 | Nc1nc(OCCF)c2nc(-c3ccc(F)cc3)ccc2n1 [Example 417, 2-amino-4-(2-fluoro-ethoxy)-6-(4-fluorophenyl)pyrido[3,2-d]pyrimidine] | 2282 | 7.96 | 25100 | –
23 | COc1ccc(-c2ccc3nc(N)nc(Nc4cccc(Br)c4)c3n2)cc1OC [Example 34, 2-amino-4-(3-bromo-anilino)-6-(3,4-dimethoxyphenyl)pyrido[3,2-d]-pyrimidine] | 151 | 7.29 | 7700 | –
24 | CCOc1nc(N)nc2ccc(-c3cccc(F)c3)nc12 [Example 280, 2-amino-4-ethoxy-6-(m-fluorophenyl)-pyrido[3,2-d]-pyrimidine] | 125 | 6.52 | 37500 | –
25 | COc1nc(N)nc2ccc(-c3ccc(F)cc3)nc12 [Example 504, 6-(4-fluoro-phenyl)-4-methoxy-pyrido[3,2-d]pyrimidin-2-ylamine] | 434 | 7.48 | 14300 | –
26 | Cc1cccc(NC(=O)N2CCN(c3nc(N)nc4ccc(-c5ccc6c(c5)OCO6)nc34)CC2)c1 [Example 190, 2-amino-4-[N-(3-methyl-phenyl-carbamoyl)-piperazin-1-yl]-6-(3,4-methylenedioxyphenyl)-pyrido[3,2-d]pyrimidine] | 51 | 7.92 | 610 | –
27 | COc1ccc(-c2ccc3nc(N)nc(N4CCN(CC(=O)N5CCCC5)CC4)c3n2)cc1OC [Example 263, 2-amino-4-(N-pyrrolidinyl-acetamid-2-yl-piperazin-1-yl)-6-(3,4-dimethoxyphenyl)pyrido[3,2-d]pyrimidine] | 102 | 7.55 | 2900 | –
28 | COc1ccc(-c2ccc3nc(N)nc(N4CCN(CC(=O)N5CCOCC5)CC4)c3n2)cc1OC [Example 265, 2-amino-4-[N-(piperazino)-acetyl-morpholino]-6-(3,4-dimethoxyphenyl)-pyrido[3,2-d]pyrimidine] | 84 | 7.51 | 2600 | –
29 | COc1ccc(-c2ccc3nc(N)nc(NC4CCCN(C(=O)OC(C)(C)C)C4)c3n2)cc1OC (stereo not drawn) [Example 247, 2-amino-4-[(1-Boc-piperidin-3-yl)amino]-6-(3,4-dimethoxyphenyl)-pyrido[3,2-d]pyrimidine] | 238 | 7.66 | 5200 | –
